Experimental data as given in publication PMC11672294, “The Antipsychotic Drug Aripiprazole Suppresses Colorectal Cancer by Targeting LAMP2a to Induce RNH1/miR‐99a/mTOR‐Mediated Autophagy and Apoptosis” (Advanced Science, 2024).
Where a name gives a salt, the structure may show the parent alone.

Test system: HT29
Details: 72 h, relative to DMSO, 10 µM, Relative cell viability (%)
In short: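 HT29 viability used WST-1 reduction (2 h, 37 °C, A450) after 72 h of treatment; screening compounds were tested singly at 10 µM, with dimethyl sulfoxide as the comparison.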

Point of comparison: `COc1ccccc1Oc1c(NS(=O)(=O)c2ccc(C(C)(C)C)cc2)nc(-c2ncccn2)nc1OCCO` [Bosentan], “Relative cell viability (%)” value 63.94%. Against it:
- N#CC[C@H](C1CCCC1)n1cc(-c2ncnc3[nH]ccc23)cn1 [Ruxolitinib (INCB018424)] — higher, 77.41%

Same assay, conditions: 72 h, relative to DMSO; 10 µM

Point of comparison: `Nc1c(Br)cc(Br)cc1CN[C@H]1CC[C@H](O)CC1` [Ambroxol HCl], “Relative cell viability (%)” value 67.96%. Against it:
- N#CC1(c2ccc(NC(=O)c3cccnc3NCc3ccncc3)cc2)CCCC1 [Apatinib] — higher, 110.8%
- O=c1[nH]c(=O)n([C@H]2C[C@H](O)[C@@H](CO)O2)cc1C(F)(F)F [Trifluridine] — lower, 53.81%
- CNC(=C[N+](=O)[O-])NCCSCc1csc(CN(C)C)n1 [Nizatidine] — higher, 77.97%
- C=CCc1cc(OC)c(O)c(C(=O)NCCO)c1 [Alibendol] — higher, 149.2%
- CCOC(=O)c1cncn1[C@H](C)c1ccccc1 [Etomidate] — lower, 60.28%
- CN1CCN(c2nc(C3=C(c4c[nH]c5ccccc45)C(=O)NC3=O)c3ccccc3n2)CC1 [Sotrastaurin] — lower, 49.03%
- CC(C)OC(=O)C(C)(C)Oc1ccc(C(=O)c2ccc(Cl)cc2)cc1 [Fenofibrate] — higher, 74.15%
- CCC[S+]([O-])c1ccc2[nH]c(NC(=O)OC)nc2c1 (stereo not shown) [Albendazole Oxide] — lower, 65.25%
- N#Cc1ccccc1-c1cc(-c2ccccn2)cn(-c2ccccc2)c1=O [Perampanel] — higher, 104.7%
- COC(=O)Nc1nc2ccc([S+]([O-])c3ccccc3)cc2[nH]1 (stereo not shown) [Oxfendazole] — lower, 57.63%
- CN(C)c1ccc(C(=C2C=CC(=[N+](C)C)C=C2)c2ccc(N(C)C)cc2)cc1 [Crystal Violet] — lower, 4.52%
- COCCCN1CCC(NC(=O)c2cc(Cl)c(N)c3c2OCC3)CC1 [Prucalopride] — higher, 129.1%
- CC(=O)O[C@]1(C(C)=O)CC[C@H]2[C@@H]3C[C@H](C)C4=CC(=O)C=C[C@]4(C)[C@@]3(F)[C@@H](O)C[C@@]21C [Fluorometholone Acetate] — higher, 86.67%
- Cc1ccc(-c2cc(C(F)(F)F)nn2-c2ccc(S(N)(=O)=O)cc2)cc1 [Celecoxib] — higher, 69.63%
- CN(C)/N=N/c1[nH]cnc1C(N)=O [Dacarbazine] — higher, 91.43%
- Cc1ccccc1C(=O)Nc1ccc(C(=O)N2CCCC(O)c3cc(Cl)ccc32)c(C)c1 (stereo not shown) [Tolvaptan] — lower, 54.85%
- CCCCCCNC(=O)n1cc(F)c(=O)[nH]c1=O [Carmofur] — lower, 24.45%
- COc1ccc([C@H]2CNC(=O)C2)cc1OC1CCCC1 [S- (+)-Rolipram] — higher, 107.3%
- NC(=O)c1ncn([C@@H]2O[C@H](CO)[C@@H](O)[C@H]2O)c1N [Acadesine] — higher, 105.9%
- S=C(NCc1ccc2c(c1)OCO2)N1CCN(c2ncnc3c2oc2ccccc23)CC1 [Amuvatinib (MP-470)] — lower, 66.51%
- C[C@@H](NCCCc1cccc(C(F)(F)F)c1)c1cccc2ccccc12 [Cinacalcet HCl] — lower, 2.648%
- CCN1CCN(c2cc3c(cc2F)c(=O)c(C(=O)O)cn3C2CC2)CC1 [Enrofloxacin] — higher, 78.16%
- OCCOc1ccc(/C(=C(/CCCl)c2ccccc2)c2ccccc2)cc1 [Ospemifene] — higher, 80.303%
- Cc1ccc(-n2nc(C(C)(C)C)cc2NC(=O)NCc2cc(F)ccc2Oc2ccc3c(cnn3CCO)c2)cc1 [Pexmetinib (ARRY-614)] — lower, 47.01%
- COc1cc(/C=C/C(=O)CC(=O)/C=C/c2ccc(O)c(OC)c2)ccc1O [Curcumin] — lower, 46.19%
- Cn1c(COP(=O)(NCCBr)NCCBr)cnc1[N+](=O)[O-] [TH-302] — higher, 83.98%
- CCCCNc1cc(C(=O)O)cc(S(N)(=O)=O)c1Oc1ccccc1 [Bumetanide] — lower, 61.84%
- C[C@@H](O)[C@H]1C(=O)N2C(C(=O)O)=C(S[C@@H]3CN[C@H](C(=O)N(C)C)C3)[C@H](C)[C@H]12 [Meropenem] — higher, 72.74%
- O=C(O)c1nn(Cc2ccc(Cl)cc2Cl)c2ccccc12 [Lonidamine] — lower, 47.57%
- O=C(CCCCCCNC(=O)c1cnc(N(c2ccccc2)c2ccccc2)nc1)NO [Rocilinostat (ACY-1215)] — lower, 32.91%
- COCCc1ccc(OCC(O)CNC(C)C)cc1 (stereo not shown) [Metoprolol Tartrate] — higher, 94.49%
- CNC(=O)c1ccc(Nc2ncc(C(F)(F)F)c(NCc3nccnc3N(C)S(C)(=O)=O)n2)cc1 [Defactinib (VS-6063, PF-04554878)] — lower, 67.52%
- CN1CCC(=C2c3ccccc3CC(=O)c3sccc32)CC1 [Ketotifen Fumarate] — higher, 182.5%
- CC(C)C[C@H](NC(=O)CNC(=O)c1cc(Cl)ccc1Cl)B(O)O [MLN2238] — higher, 125%
- CC1(C)Cc2c(-c3ccccc3)c(-c3ccc(Cl)cc3)c(CC(=O)O)n2C1 [Licofelone] — higher, 137.9%
- CC(C)=CCC/C(C)=C/CC/C(C)=C/CSc1ccccc1C(=O)O [Salirasib] — higher, 84.19%
- C=CC(=O)Nc1cc(Nc2nccc(-c3cn(C)c4ccccc34)n2)c(OC)cc1N(C)CCN(C)C [AZD9291] — lower, 0.8547%
- COc1c2occc2cc2ccc(=O)oc12 [Methoxsalen] — higher, 170.4%
- CC(C)C(=O)Nc1ccc([N+](=O)[O-])c(C(F)(F)F)c1 [Flutamide] — higher, 100.9%
- CN(C)C(=O)c1cc2cnc(Nc3ccc(N4CCNCC4)cn3)nc2n1C1CCCC1 [LEE011] — lower, 66.24%
- CN1CCc2nc(C(=O)N[C@@H]3C[C@@H](C(=O)N(C)C)CC[C@@H]3NC(=O)C(=O)Nc3ccc(Cl)cn3)sc2C1 [Edoxaban] — higher, 95.73%
- Clc1ccc(CCC(Cn2ccnc2)Sc2c(Cl)cccc2Cl)cc1 (stereo not shown) [Butoconazole nitrate] — lower, 63.98%
- Cc1ccc(Nc2nccc(N(C)c3ccc4c(C)n(C)nc4c3)n2)cc1S(N)(=O)=O [Pazopanib] — lower, 46.12%
- Nc1nccs1 [Aminothiazole] — higher, 93.03%
- CC(C)[C@H]1C(=O)N[C@@H](CCCN=C(N)N)C(=O)NCC(=O)N[C@@H](CC(=O)O)C(=O)N[C@H](Cc2ccccc2)C(=O)N1C [Cilengitide] — lower, 61.11%
- Cc1cccc(Cc2c[nH]cn2)c1C [Detomidine HCl] — higher, 118.5%
- CN1CC[C@H](c2c(O)cc(O)c3c(=O)cc(-c4ccccc4Cl)oc23)[C@H](O)C1 [Flavopiridol (Alvocidib)] — lower, 8.879%
- O=C(Nc1cccc2c(=O)cc(-c3nnn[nH]3)oc12)c1ccc(OCCCCc2ccccc2)cc1 [Pranlukast] — higher, 81.78%
- CNCC[C@H](Oc1cccc2ccccc12)c1cccs1 [Duloxetine HCl] — higher, 99.61%
- C[C@@](Cc1ccc(O)c(O)c1)(NN)C(=O)O [Carbidopa] — higher, 97.03%
- CN/C(=N/CCSCc1nc[nH]c1C)NC#N [Cimetidine] — higher, 97.03%
- Nc1ccc(S(=O)(=O)Nc2ncccn2)cc1 [Sulfadiazine] — higher, 85.59%
- CC(=O)Nc1cccc(-n2c(=O)n(C3CC3)c(=O)c3c(Nc4ccc(I)cc4F)n(C)c(=O)c(C)c32)c1 [Trametinib (GSK1120212)] — lower, 35.92%
- O=C1CC[C@@]2(O)[C@H]3Cc4ccc(O)c5c4[C@@]2(CCN3CC2CC2)[C@H]1O5 [Naltrexone HCl] — higher, 104.3%
- CC(=O)OCC[N+](C)(C)C [Acetylcholine Chloride] — higher, 93.22%
- Cc1c(C(=O)Nc2ccc(N3C[C@@H](C)O[C@@H](C)C3)nc2)cccc1-c1ccc(OC(F)(F)F)cc1 [LDE225 (NVP-LDE225,Erismodegib)] — higher, 111.4%
- CCOc1nc2cccc(C(=O)OCc3oc(=O)oc3C)c2n1Cc1ccc(-c2ccccc2-c2noc(=O)[nH]2)cc1 [Azilsartan Medoxomil] — higher, 116%
- Cc1ncc([N+](=O)[O-])n1CCO [Metronidazole] — higher, 113.4%
- N[C@@H](Cc1cc(I)c(Oc2ccc(O)c(I)c2)c(I)c1)C(=O)O [Liothyronine Sodium] — higher, 85.76%
- O=C(CCCN1CCC(O)(c2ccc(Cl)cc2)CC1)c1ccc(F)cc1 [Haloperidol] — lower, 29.34%
- Oc1c(Cl)cc(Cl)c2cccnc12 [Chloroxine] — higher, 69.07%
- NC(N)=Nc1nc(CSCCC(N)=NS(N)(=O)=O)cs1 [Famotidine] — higher, 119.6%
- Cc1oncc1C(=O)Nc1ccc(C(F)(F)F)cc1 [Leflunomide] — lower, 55.61%
- Cc1c(O)cccc1C(=O)N[C@@H](CSc1ccccc1)[C@H](O)CN1C[C@H]2CCCC[C@H]2C[C@H]1C(=O)NC(C)(C)C [Nelfinavir Mesylate] — lower, 23.94%
- O=C(O)c1cc(-c2ccccc2)nc2ccccc12 [Cinchophen] — higher, 89.39%
- C=CC(=O)N1CCC(Oc2cc3c(Nc4ccc(Cl)c(Cl)c4F)ncnc3cc2OC)CC1 [Poziotinib (HM781-36B)] — higher, 68.8%
- CCn1cc(C(=O)O)c(=O)c2ccc(C)nc21 [Nalidixic acid] — higher, 106.7%
- CN(C)Cc1ccc(S(=O)(=O)n2ccc(/C=C/C(=O)NO)c2)cc1 [Resminostat] — lower, 19.9%
- Cc1cccc(N(C)C(=S)Oc2ccc3ccccc3c2)c1 [Tolnaftate] — higher, 126.1%
- CC(NC(C)(C)C)C(=O)c1cccc(Cl)c1 (stereo not shown) [Amfebutamone HCl] — higher, 104.9%
- CCc1cc(C(N)=S)ccn1 [Ethionamide] — lower, 62.71%
- CCOC(=O)C1=C(C)NC(C)=C(C(=O)OCC)C1c1ccccc1/C=C/C(=O)OC(C)(C)C [Lacidipine] — higher, 79.32%
- CCCc1cc(C(N)=S)ccn1 [Protionamide] — higher, 123.7%
